Like-named read-outs stand apart in the source and are kept apart here.
Columns and labels:
[1] = rat, in vivo; cited from earlier work
[2] = system: T98G (JCRB9041, human glioblastoma multiforme) cell lines; assay: Example 3 T98G cell proliferation (Resazurin/alamarBlue) after carbon or helium ion beam irradiation with neutron capture agents; type: cell-based; settings: 500 μM; for Cell proliferation: 24 h incubation prior to irradiation, up to 168 hours, vs flasks without compound; for radiosensitisation: carbon and helium ion beams
Description: The approach of the aforementioned embodiments was tested experimentally. A series of proof-of concept experiments were performed at Japan's HIMAC facility, to quantify the effective increase in biological dose which can be achieved in vitro. Cultured T98-G cancer cells adhered to the inner surface of T25 cell culture flasks were irradiated in carbon and helium ion beams, with and without the presence of realistic concentrations of neutron capture agents.
Three frozen vials of T98G (JCRB9041, human glioblastoma multiforme) cell lines were purchased from the National Institutes of Biomedical Innovation, Health and Nutrition, JCRB Cell Bank and used throughout the experiments.
Prior to the start of the experiments, the cells were revived and passaged twice prior to seeding 160 T25 flasks, with 5 mL of complete growth medium (DMEM+10% FBS). Flasks were incubated at 37±1° C. in an atmosphere of 5±1% CO2.
The experiments utilised ^12C and ^4He beams with 60 mm Spread Out Bragg Peak (SOBP60) spectra, and an approximate dose rate of 1 Gy/min. Cell viability was measured as a function of ion beam dose in cultured T98-G human glioblastoma cells, with and without the presence of two neutron capture agents, ^10B enriched 4-borono-L-phenylalanine (^10B-BPA) and 2,2′,2″-(10-(4-(((triphenylphosphonio)methyl)benzyl)-1,4,7,10-tetraazacyclododecane-1,4,7-triyl)triacetatogadolinium(III) trifluoroacetate (157Gd-DOTA-TPP salt complex).
A set of 300×300×10 mm^3 PMMA slabs were used in conjunction with a PMMA receptacle for holding two flasks. With this arrangement, the flasks containing the cell cultures were positioned inside a cubic 300×300×300 mm^3 PMMA phantom in a plane normal to the incident beam, at a depth corresponding to the midpoint of the SOBP60 as illustrated schematically in FIG. 13. The neutron fluence predicted via Monte Carlo simulation in Example 2 is overlayed on this figure for illustrative purposes. The ion beams were ^12C and ^4He beams with dimensions of 100×100 mm^2 (width×height) and SOBP60 energy spectra with mean energies of 290 MeV/u and 150 MeV/u, respectively (corresponding to SOBP depth ranges of approximately 8 to 14 cm in PMMA).
The irradiation campaign was conducted on four consecutive nights (carbon ion beam irradiations were conducted on the first and third nights, while helium ion beam irradiations were performed on the second and fourth night) at the HIMAC biological beamline. Forty flasks were irradiated during each night, at 80% to 90% confluence (corresponding to ˜3.75×10^5 cells per flask). Twenty-four hours prior to each irradiation, 10 flasks were incubated with 500 μM of ^10B-BPA, while a second set of 10 flasks were incubated with 500 μM of ^157Gd-DOTA-TPP salt complex. The remaining 20 flasks were used as control.
On the night of irradiation, the beam was calibrated for dose rate and dose-depth deposition and the dose-rate at the centre of the Bragg peak (corresponding to the location of the cells) was measured with an ionisation chamber. Immediately prior to irradiation, flasks were filled with a complete DMEM media (˜30 mL per flask). Flasks were irradiated in pairs, with flasks containing the neutron capture agents irradiated together, followed by corresponding control flasks (containing no neutron capture agent). Ten different dose values were used with each ion beam: 0, 0.9, 1.8, 2.3, 2.7, 3.2, 3.6, 4.1, 4.6, and 7.3 Gy for helium, and 0, 0.6, 1.3, 1.6, 1.9, 2.2, 2.5, 2.8, 3.1 and 5 Gy for carbon.
After irradiation, the medium was aseptically removed from the irradiated flasks. Cells were washed with 5 mL of DPBS which was removed and discarded. Cells were then trypsinised, detached from the flasks and resuspended in completed growth medium. Cell count and viability was recorded.
Sixteen 96-well plates were populated each night, each well containing approximately 375 cells, and each set of three wells corresponding to one flask. […]

brain tumour cells = brain tumour cells / brain tumours; reported; cited from earlier work
normal tissues = settings: reported; cited from earlier work
liver tumours = settings: reported [26, 27, 39]; cited from earlier work
liver = settings: normal liver; reported [26, 27, 39]; cited from earlier work
[3] = value used in Example 2 dose relation; cited from earlier work
[4] = in vivo, cited from earlier work
[5] = in vivo; cited from earlier work
GBM (in vitro) = settings: cited from earlier work
[6] = system: T98G (glioblastoma, in vitro); settings: cited from earlier work
[7] = Example 2 Monte Carlo simulation and treatment plan, neutron capture dose enhancement in PMMA target; settings: based on photon activated therapy studies with the same agent, corrected for expected Auger electron production
Description: In a further example, a similar set of simulations was conducted. Significance was arbitrarily defined as an average 10% increase in photon-equivalent dose within a tumour resulting from the administration of a non-toxic bolus of neutron-capture agent (though it is envisaged that the method of this embodiment can be used with any desired dose increase factor). To do so, the concentration of neutron capture agent required to provide a 10% increase in effective photon-equivalent dose is determined for a simple simulated therapeutic proton/heavy ion treatment plan, and this is compared with concentrations reported in the literature.
The first step is to evaluate the neutron fluence resulting from pencil-beam irradiation of a point within a target volume. […] Dose and neutron fluence distributions were recorded for each simulation; corresponding distributions at energies in between these were also estimated by interpolating between the distributions obtained at these energies. […] The primary particle fluence at each energy was then weighted such that an approximately flat biological effective dose (BED) was delivered to a defined treatment volume by the ion beam; two 50 mm cubic volumes were evaluated, one centred at a depth of 125 mm and a second centred at a depth of 165 mm. […]

glioblastoma cell nuclei = settings: cited from earlier work
[8] = in vivo; cited from earlier work; remark: listed apart in the source

boron
values previously published, tumour concentration [1]: up to 231 ppm

N[C@@H](Cc1ccc([10B](O)O)cc1)C(=O)O [BPA, ^10B-4-borono-L-phenylalanine]
Cell proliferation ([2]; carbon beam 0 to 5 Gy): substantially reduced | Cell proliferation ([2]; helium beam): substantially reduced | radiosensitisation [2]: clear and substantial radiosensitisation | CBE (brain tumour cells): 3.6-3.8 | CBE (normal tissues): 0.9-1.3 | CBE, tumour (liver tumours): 9.94 | CBE, liver (liver): 4.25 | compound biological effectiveness CBE [3]: 3.8 | Concentration (PPM) ([4]; iv): 30 ± 12 PPM | Concentration ratio (tumour to healthy tissue) ([4]; iv): 5:1 ^ | highest BPA concentration reported in the literature [4]: 125 ppm | tumour to healthy tissue concentration ratio [4]: 5:1-8:1 | concentration ratio (tumour:normal tissue) [5]: 2.8

O=C([O-])CN1CCN(CC(=O)[O-])CCN(CC(=O)O)CCN(CC(=O)[O-])CC1.[Gd+3] [Gd-DOTA]
Concentration (ppM) (GBM (in vitro)): 140 (1 h) ppM | accumulation within the cell nucleus (GBM (in vitro)): neither accumulates to significant concentration

[Gd] [gadolinium]
values previously published, concentration [6]: up to 3000 ppm

O=C([O-])C(F)(F)F.O=C([O-])CN1CCN(CC(=O)[O-])CCN(Cc2ccc(C[P+](c3ccccc3)(c3ccccc3)c3ccccc3)cc2)CCN(CC(=O)[O-])CC1.[Gd+3] [^157Gd-DOTA-TPP salt complex]
compound biological effectiveness CBE [7]: ≈ 40 | Cell proliferation ([2]; carbon beam 0 to 5 Gy): substantially reduced | Cell proliferation ([2]; helium beam): substantially reduced | radiosensitisation [2]: clear and substantial radiosensitisation

O=C([O-])CN(CCN(CC(=O)[O-])CC(=O)O)CCN(CC(=O)[O-])CC(=O)O.[Gd+3] [Gd-DTPA]
accumulation within the cell nucleus (GBM (in vitro); reported [40]): neither accumulates to significant concentration

CC(=O)[O-].CC(=O)[O-].CCc1c(CC)c2cc3nc(cnc4cc(OCCOCCOCCOC)c(OCCOCCOCCOC)cc4ncc4nc(cc1[n-]2)C(CCCO)=C4C)C(C)=C3CCCO.O.[Gd+3] [motexafin-gadolinium]
prolonged retention of gadolinium in vitro (glioblastoma cell nuclei): up to 2 months | uptake in glioblastoma cell nuclei (glioblastoma cell nuclei): 90% | tumour to healthy tissue uptake ratio [8]: 70:1

sodium mercaptoundecahydro-closo-dodecaborate [BSH]
CBE, tumour (liver tumours): 4.22 | CBE, liver (liver): 0.94 | tumour to healthy tissue concentration ratio [4]: 1.2-3.5 | concentration ratio (tumour:normal tissue) [5]: 0.3

From patent publication US11850449B2, “Irradiation method and system” (priority 2017, dated 2023)
